{"source": "patent US20010041745A1", "about": "“Methods for increasing levels of acetylcholine” (priority 1999, published 2001)", "key": {"ChAT": {"system": "ChAT", "conditions": "rats; literature (Luine et al. 1980, Luine 1985, Singh et al. 1994); cited from earlier work"}, "[1]": {"system": "choline acetyltransferase (ChAT)", "test": "ChAT activity in hippocampus and frontal cortex homogenates of ovariectomized (OVX) rats, radio-labelled assay of acetylcholine bio-synthesis", "type": "in vivo, female Sprague-Dawley rats", "conditions": "dosed daily s.c. or oral gavage for 10 days; for levels of ChAT, difference from the sham controls: same doses as E1; for levels of ChAT versus the OVX controls: tamoxifen 3 or 10 mg/kg/day, raloxifene hydrochloride 3 mg/kg/day, estradiol benzoate 0.03 or 0.3 mg/kg/day", "description": "Forty female Sprague-Dawley rats (weight range of 300 to 325 g, six months old) are obtained from Harlan. The animals are either bilaterally ovariectomized (OVX) or exposed to a Sham surgical procedure, and then shipped after about one week. Upon arrival, they are housed in metal hanging cages in groups of 3 or 4 per cage and have ad libitum access to food and water for one week. Room temperature is maintained at 22.20±1.7° C. with a minimum relative humidity of 40%. The photoperiod in the room is 12 hours light and 12 hours dark.\nThe animals are dosed daily by subcutaneous injection or oral gavage with either tamoxifen, at 3 mg/kg/day or 10 mg/kg/day in a vehicle containing 10% cyclodextrin, raloxifene hydrochloride, at 3 mg/kg/day in a vehicle containing 10% cyclodextrin, estradiol benzoate at 0.03 or 0.3 mg/kg/day, or vehicle control. Animals were treated for 10 days. There are twenty animals per each dosing regimen. At the appropriate time intervals, the animals are sacrificed and their brains dissected. The particular portions of the brains are homogenized and assayed. Homogenates from the hippocampus and frontal cortex were processed and determination of ChAT activity was made by a radio-labelled assay of the bio-synthesis of acetylcholine. This procedure may be found in Schoepp et al., J. Neural Transmiss., 78:183-193, 1989, the teachings of which are incorporated by reference."}, "[2]": {"test": "Amelioration of Alzheimer's disease in post-menopausal women after chronic administration", "type": "in vivo, human", "conditions": "post-menopausal women with Alzheimer's disease; 20 mg per day, oral, 2-12 months", "text": "Thus, the current invention provides methods for the treatment and prophylaxis of syndromes related to the loss of memory, learning, and cognitive function, often seen in women who are estrogen deprived, especially post-menopausal women. An example of such a syndrome is senile dementia of the Alzheimer's type. Beneficial effects, such as a decrease in memory loss, associated with administration of a compound of this invention become apparent after chronic administration."}, "[3]": {"test": "Prophylactic use: cognitive and memory function by standard tests in peri- or post-menopausal women", "type": "in vivo, human", "conditions": "20 mg/day, oral, 1-5 years", "description": "The methods of the present invention may also be employed in a prophylactic modality. […] Following the establishment of this baseline, the women are administered tamoxifen at 20 mg/day, via the oral route, for a period 1-5 years."}}, "note": "Counter-ions that a name gives are not always drawn.", "data": [{"compound": "estrogen", "values": [{"measurement": "level of acetylcholine / ChAT in the hippocampus", "setting": "ChAT", "result": "increases the level of acetylcholine by up-regulating ChAT"}]}, {"compound": "C[C@]12CC[C@@H]3c4ccc(OC(=O)c5ccccc5)cc4CC[C@H]3[C@@H]1CC[C@@H]2O", "note": "[estradiol benzoate]", "values": [{"measurement": "levels of ChAT, difference from the sham controls", "setting": "[1]", "result": "insignificant difference"}, {"measurement": "levels of ChAT versus the OVX controls", "setting": "[1]", "result": "significantly (p<0.01) increased levels of ChAT"}]}, {"compound": "CC/C(=C(\\c1ccccc1)c1ccc(OCCN(C)C)cc1)c1ccccc1", "note": "[tamoxifen]", "values": [{"measurement": "effect on Alzheimer's disease", "setting": "[2]", "result": "amelioration of their disease"}, {"measurement": "levels of ChAT, difference from the sham controls", "setting": "[1]", "result": "insignificant difference"}, {"measurement": "levels of ChAT versus the OVX controls", "setting": "[1]", "result": "significantly (p<0.05) increased levels of ChAT"}, {"measurement": "cognitive and memory functions relative to matched patients given placebo", "setting": "[3]", "result": "decrease in loss of these functions"}]}, {"compound": "O=C(c1ccc(OCCN2CCCCC2)cc1)c1c(-c2ccc(O)cc2)sc2cc(O)ccc12", "note": "[raloxifene hydrochloride]", "values": [{"measurement": "levels of ChAT, difference from the sham controls", "setting": "[1]", "result": "insignificant difference"}, {"measurement": "levels of ChAT versus the OVX controls", "setting": "[1]", "result": "significantly (p<0.01) increased levels of ChAT"}]}]}
